Assay results taken from publication PMC7403980, “Anti-Inflammatory Effects of the Novel PIM Kinase Inhibitor KMU-470 in RAW 264.7 Cells through the TLR4-NF-κB-NLRP3 Pathway” (International Journal of Molecular Sciences, 2020).

Columns and labels:
BTK (h) = target: T1, BTK (h) (Homo sapiens, UniProt Q06187); experiment: Kinase profiling (Eurofins Cerep); assay type: biochemical; settings: KMU-470 10 μM; ATP at Km
T1 construct: purchased Eurofins Cerep S.A. (kinase profiler service)
Experimental: (§1) To test the specificity of the novel PIM kinase inhibitor KMU-470, a kinase profiler service was conducted by Eurofins Cerep S.A. The screening was performed with 1 and 10 μM of compound and a concentration of ATP at the Km value for each individual kinase and kinase substrate according to Eurofin’s protocols.

Bmx (h) = target: T2, Bmx (h) (Homo sapiens, UniProt P51813); experiment: Kinase profiling (Eurofins Cerep); assay type: biochemical; settings: KMU-470 10 μM; ATP at Km
T2 construct: purchased Eurofins Cerep S.A. (kinase profiler service)
Experimental: as §1

Csrc (h) = target: T3, Csrc (h) (Homo sapiens, UniProt P12931); experiment: Kinase profiling (Eurofins Cerep); assay type: biochemical; settings: KMU-470 10 μM; ATP at Km
T3 construct: purchased Eurofins Cerep S.A. (kinase profiler service)
Experimental: as §1

Fgr (h) = target: T4, Fgr (h) (Homo sapiens, UniProt P09769); experiment: Kinase profiling (Eurofins Cerep); assay type: biochemical; settings: ATP at Km
T4 construct: purchased Eurofins Cerep S.A. (kinase profiler service)
T4 sequence (P09769 whole entry): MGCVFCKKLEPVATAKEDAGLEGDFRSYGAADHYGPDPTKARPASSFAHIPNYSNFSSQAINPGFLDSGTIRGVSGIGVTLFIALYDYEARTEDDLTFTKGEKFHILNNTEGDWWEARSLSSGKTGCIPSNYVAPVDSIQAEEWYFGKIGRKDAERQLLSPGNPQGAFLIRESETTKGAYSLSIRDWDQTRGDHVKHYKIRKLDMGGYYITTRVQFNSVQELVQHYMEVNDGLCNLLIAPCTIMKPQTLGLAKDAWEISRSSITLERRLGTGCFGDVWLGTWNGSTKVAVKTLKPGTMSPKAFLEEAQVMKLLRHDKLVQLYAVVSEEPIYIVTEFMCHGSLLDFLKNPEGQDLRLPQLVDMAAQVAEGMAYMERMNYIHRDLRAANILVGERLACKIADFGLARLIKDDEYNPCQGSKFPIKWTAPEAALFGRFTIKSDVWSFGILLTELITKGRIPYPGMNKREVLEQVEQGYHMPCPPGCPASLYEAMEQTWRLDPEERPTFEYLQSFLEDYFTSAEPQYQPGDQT
Experimental: as §1

Fyn (h) = target: T5, Fyn (h) (Homo sapiens, UniProt P06241); experiment: Kinase profiling (Eurofins Cerep); assay type: biochemical; settings: ATP at Km
T5 construct: purchased Eurofins Cerep S.A. (kinase profiler service)
Experimental: as §1

Hck (h) = target: T6, Hck (h) (Homo sapiens, UniProt P08631); experiment: Kinase profiling (Eurofins Cerep); assay type: biochemical; settings: KMU-470 10 μM; ATP at Km
T6 construct: purchased Eurofins Cerep S.A. (kinase profiler service)
Experimental: as §1

Itk (h) = target: T7, Itk (h) (Homo sapiens, UniProt Q08881); experiment: Kinase profiling (Eurofins Cerep); assay type: biochemical; settings: ATP at Km
T7 construct: purchased Eurofins Cerep S.A. (kinase profiler service)
Experimental: as §1

JAK1 (h) = target: T8, JAK1 (h) (Homo sapiens, UniProt P23458); experiment: Kinase profiling (Eurofins Cerep); assay type: biochemical; settings: ATP at Km
T8 construct: purchased Eurofins Cerep S.A. (kinase profiler service)
T8 sequence (P23458 whole entry): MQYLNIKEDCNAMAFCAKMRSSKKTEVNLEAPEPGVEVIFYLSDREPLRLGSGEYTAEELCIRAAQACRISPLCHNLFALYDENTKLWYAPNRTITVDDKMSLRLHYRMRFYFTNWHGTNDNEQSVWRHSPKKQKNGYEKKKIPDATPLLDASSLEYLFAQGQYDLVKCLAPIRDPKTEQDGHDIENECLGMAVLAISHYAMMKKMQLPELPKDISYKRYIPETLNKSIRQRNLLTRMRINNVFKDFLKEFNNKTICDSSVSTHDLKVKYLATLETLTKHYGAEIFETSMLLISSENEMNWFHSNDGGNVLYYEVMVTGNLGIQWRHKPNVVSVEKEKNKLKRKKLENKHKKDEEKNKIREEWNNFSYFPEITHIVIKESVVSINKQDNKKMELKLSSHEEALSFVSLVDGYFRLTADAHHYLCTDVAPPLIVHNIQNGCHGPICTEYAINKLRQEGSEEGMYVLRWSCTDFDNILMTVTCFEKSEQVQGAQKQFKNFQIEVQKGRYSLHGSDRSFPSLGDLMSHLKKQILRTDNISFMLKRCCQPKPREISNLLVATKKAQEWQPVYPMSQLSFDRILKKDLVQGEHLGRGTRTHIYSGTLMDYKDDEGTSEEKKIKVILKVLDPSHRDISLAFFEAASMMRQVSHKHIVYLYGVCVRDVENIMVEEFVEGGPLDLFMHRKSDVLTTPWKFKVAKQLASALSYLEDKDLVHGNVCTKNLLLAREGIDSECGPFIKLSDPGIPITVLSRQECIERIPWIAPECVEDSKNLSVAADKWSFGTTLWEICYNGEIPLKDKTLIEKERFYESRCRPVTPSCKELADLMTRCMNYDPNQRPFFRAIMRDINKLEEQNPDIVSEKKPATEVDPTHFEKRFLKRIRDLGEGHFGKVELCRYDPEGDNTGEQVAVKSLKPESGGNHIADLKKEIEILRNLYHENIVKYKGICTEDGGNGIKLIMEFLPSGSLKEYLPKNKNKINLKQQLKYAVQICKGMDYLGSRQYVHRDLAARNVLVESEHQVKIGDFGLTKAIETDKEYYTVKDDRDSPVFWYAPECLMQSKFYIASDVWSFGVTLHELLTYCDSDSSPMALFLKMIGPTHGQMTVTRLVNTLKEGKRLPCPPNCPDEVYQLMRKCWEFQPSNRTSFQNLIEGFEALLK
Experimental: as §1

JAK2 (h) = target: T9, JAK2 (h) (Homo sapiens, UniProt O60674); experiment: Kinase profiling (Eurofins Cerep); assay type: biochemical; settings: ATP at Km
T9 construct: purchased Eurofins Cerep S.A. (kinase profiler service)
T9 sequence (O60674 whole entry): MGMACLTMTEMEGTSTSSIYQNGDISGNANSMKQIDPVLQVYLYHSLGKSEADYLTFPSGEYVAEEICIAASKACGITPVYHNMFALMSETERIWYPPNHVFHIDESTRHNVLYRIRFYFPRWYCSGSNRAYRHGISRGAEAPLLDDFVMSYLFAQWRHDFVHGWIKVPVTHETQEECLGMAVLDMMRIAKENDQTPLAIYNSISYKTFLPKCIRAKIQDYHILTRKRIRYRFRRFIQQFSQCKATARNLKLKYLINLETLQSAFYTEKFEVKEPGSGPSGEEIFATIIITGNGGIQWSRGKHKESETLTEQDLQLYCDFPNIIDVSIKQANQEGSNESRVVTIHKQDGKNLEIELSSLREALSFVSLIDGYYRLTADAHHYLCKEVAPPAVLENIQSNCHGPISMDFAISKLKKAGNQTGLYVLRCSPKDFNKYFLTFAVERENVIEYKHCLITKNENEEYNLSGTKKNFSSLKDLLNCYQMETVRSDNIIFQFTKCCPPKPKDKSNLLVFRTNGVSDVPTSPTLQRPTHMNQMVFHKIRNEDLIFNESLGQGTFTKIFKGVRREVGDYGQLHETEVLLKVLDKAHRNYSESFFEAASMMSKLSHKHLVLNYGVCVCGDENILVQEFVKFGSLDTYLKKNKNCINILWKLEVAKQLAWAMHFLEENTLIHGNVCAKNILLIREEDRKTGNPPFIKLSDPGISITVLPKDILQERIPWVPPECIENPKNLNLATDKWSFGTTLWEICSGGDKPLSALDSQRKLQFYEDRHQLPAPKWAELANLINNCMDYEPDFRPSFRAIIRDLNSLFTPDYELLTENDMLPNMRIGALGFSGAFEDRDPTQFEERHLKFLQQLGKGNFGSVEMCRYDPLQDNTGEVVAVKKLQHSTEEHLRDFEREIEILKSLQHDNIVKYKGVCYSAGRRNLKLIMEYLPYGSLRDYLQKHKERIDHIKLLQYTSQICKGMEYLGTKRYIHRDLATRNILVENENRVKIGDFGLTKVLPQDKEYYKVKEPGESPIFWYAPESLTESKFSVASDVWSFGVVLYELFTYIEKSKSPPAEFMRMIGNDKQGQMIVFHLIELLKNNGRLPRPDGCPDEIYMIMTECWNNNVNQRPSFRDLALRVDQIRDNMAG
Experimental: as §1

JAK3 (h) = target: T10, JAK3 (h) (Homo sapiens, UniProt P52333); experiment: Kinase profiling (Eurofins Cerep); assay type: biochemical; settings: ATP at Km
T10 construct: purchased Eurofins Cerep S.A. (kinase profiler service)
T10 sequence (P52333 whole entry): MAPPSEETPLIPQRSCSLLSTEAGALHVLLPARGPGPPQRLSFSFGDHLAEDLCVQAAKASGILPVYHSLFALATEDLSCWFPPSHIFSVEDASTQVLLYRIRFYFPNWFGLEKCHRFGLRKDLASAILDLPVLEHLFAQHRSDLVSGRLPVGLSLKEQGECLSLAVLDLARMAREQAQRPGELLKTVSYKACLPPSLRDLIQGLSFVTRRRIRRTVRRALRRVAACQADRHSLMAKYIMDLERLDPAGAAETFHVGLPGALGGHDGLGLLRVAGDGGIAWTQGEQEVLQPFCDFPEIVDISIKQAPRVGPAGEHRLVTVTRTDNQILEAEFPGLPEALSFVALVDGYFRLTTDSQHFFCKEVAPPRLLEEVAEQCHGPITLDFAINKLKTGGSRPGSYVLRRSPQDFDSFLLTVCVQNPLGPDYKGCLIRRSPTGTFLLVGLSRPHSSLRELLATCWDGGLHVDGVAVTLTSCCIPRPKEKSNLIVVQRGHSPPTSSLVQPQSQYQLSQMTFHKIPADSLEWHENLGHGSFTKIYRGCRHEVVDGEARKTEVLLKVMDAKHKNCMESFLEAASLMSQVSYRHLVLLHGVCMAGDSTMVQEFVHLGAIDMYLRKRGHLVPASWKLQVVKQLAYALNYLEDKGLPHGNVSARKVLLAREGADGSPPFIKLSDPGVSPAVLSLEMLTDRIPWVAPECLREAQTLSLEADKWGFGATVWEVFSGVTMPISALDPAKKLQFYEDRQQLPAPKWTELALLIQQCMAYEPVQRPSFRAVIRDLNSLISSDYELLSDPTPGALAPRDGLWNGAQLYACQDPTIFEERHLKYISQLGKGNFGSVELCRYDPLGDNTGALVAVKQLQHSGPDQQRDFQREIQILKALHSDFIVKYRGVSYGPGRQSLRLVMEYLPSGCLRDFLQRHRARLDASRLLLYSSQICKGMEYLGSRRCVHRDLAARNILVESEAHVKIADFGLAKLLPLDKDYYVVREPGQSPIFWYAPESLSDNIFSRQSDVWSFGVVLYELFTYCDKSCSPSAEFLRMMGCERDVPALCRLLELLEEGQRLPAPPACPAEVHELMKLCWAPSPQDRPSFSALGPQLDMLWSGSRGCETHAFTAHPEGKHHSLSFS
Experimental: as §1

Lck (h) = target: T11, Lck (h) (Homo sapiens, UniProt P06239); experiment: Kinase profiling (Eurofins Cerep); assay type: biochemical; settings: ATP at Km
T11 construct: purchased Eurofins Cerep S.A. (kinase profiler service)
T11 sequence (P06239 whole entry): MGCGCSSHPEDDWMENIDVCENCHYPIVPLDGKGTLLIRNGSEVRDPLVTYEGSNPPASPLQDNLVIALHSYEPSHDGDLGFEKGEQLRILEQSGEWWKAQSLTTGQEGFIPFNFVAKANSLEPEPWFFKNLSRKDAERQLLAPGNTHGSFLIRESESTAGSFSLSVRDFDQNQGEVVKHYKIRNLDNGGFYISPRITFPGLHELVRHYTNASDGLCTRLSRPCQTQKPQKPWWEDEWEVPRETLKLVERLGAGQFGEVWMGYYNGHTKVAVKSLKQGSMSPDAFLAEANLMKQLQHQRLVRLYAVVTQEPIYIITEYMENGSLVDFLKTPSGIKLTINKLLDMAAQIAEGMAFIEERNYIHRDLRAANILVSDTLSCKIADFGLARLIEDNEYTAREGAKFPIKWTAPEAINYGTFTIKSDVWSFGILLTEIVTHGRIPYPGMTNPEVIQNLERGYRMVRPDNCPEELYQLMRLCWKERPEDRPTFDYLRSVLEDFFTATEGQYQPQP
Experimental: as §1

Lyn (h) = target: T12, Lyn (h) (Homo sapiens, UniProt P07948); experiment: Kinase profiling (Eurofins Cerep); assay type: biochemical; settings: ATP at Km
T12 construct: purchased Eurofins Cerep S.A. (kinase profiler service)
Experimental: as §1

MAPK1 (h) = target: T13, MAPK1 (h) (Homo sapiens, UniProt P27361); experiment: Kinase profiling (Eurofins Cerep); assay type: biochemical; settings: ATP at Km
T13 construct: purchased Eurofins Cerep S.A. (kinase profiler service)
T13 sequence (P27361 2-379 limits assumed): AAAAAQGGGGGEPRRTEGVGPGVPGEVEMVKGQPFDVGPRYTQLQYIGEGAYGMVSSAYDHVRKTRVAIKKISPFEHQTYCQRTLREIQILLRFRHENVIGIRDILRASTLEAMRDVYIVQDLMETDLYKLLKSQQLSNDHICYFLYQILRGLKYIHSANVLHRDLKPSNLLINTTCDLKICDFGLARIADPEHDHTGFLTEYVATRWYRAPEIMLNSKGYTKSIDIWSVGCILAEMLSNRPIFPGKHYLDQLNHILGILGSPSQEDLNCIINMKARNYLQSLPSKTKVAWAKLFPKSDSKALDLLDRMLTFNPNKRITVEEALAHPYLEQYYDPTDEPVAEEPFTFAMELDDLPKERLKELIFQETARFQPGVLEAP
Experimental: as §1

Pyk2 (h) = target: T14, Pyk2 (h) (Homo sapiens, UniProt Q14289); experiment: Kinase profiling (Eurofins Cerep); assay type: biochemical; settings: KMU-470 10 μM; ATP at Km
T14 construct: purchased Eurofins Cerep S.A. (kinase profiler service)
Experimental: as §1

SAPK2a (h) = target: T15, SAPK2a (h) (Homo sapiens, UniProt Q16539); experiment: Kinase profiling (Eurofins Cerep); assay type: biochemical; settings: KMU-470 10 μM; ATP at Km
T15 construct: purchased Eurofins Cerep S.A. (kinase profiler service)
Experimental: as §1

Syk (h) = target: T16, Syk (h) (Homo sapiens, UniProt P43405); experiment: Kinase profiling (Eurofins Cerep); assay type: biochemical; settings: ATP at Km
T16 construct: purchased Eurofins Cerep S.A. (kinase profiler service)
Experimental: as §1

TYK2 (h) = target: T17, TYK2 (h) (Homo sapiens, UniProt P29597); experiment: Kinase profiling (Eurofins Cerep); assay type: biochemical; settings: ATP at Km
T17 construct: purchased Eurofins Cerep S.A. (kinase profiler service)
Experimental: as §1

Tec (h) activated = target: T18, Tec (h) activated (Homo sapiens, UniProt P42680); experiment: Kinase profiling (Eurofins Cerep); assay type: biochemical; settings: KMU-470 10 μM; ATP at Km
T18 construct: purchased Eurofins Cerep S.A. (kinase profiler service)
Experimental: as §1

Txk (h) = target: T19, Txk (h) (Homo sapiens, UniProt P42681); experiment: Kinase profiling (Eurofins Cerep); assay type: biochemical; settings: KMU-470 10 μM; ATP at Km
T19 construct: purchased Eurofins Cerep S.A. (kinase profiler service)
Experimental: as §1

Yes (h) = target: T20, Yes (h) (Homo sapiens, UniProt P07947); experiment: Kinase profiling (Eurofins Cerep); assay type: biochemical; settings: ATP at Km
T20 construct: purchased Eurofins Cerep S.A. (kinase profiler service)
Experimental: as §1

ZAP-70 (h) = target: T21, ZAP-70 (h) (Homo sapiens, UniProt P43403); experiment: Kinase profiling (Eurofins Cerep); assay type: biochemical; settings: KMU-470 10 μM; ATP at Km
T21 construct: purchased Eurofins Cerep S.A. (kinase profiler service)
Experimental: as §1

JNK = experiment: LPS-induced phosphorylation of JNK in RAW 264.7 cells (Western blot); assay type: cell-based, murine; settings: KMU-470 1 μM 24 h pre-treatment, LPS 50 ng/mL
Experimental: Figure 5 Effect of KMU-470 on LPS-induced phosphorylation of MAPKs/ IKKs/ NF-κB in RAW 264.7 cells. (A) Cells were pre-treated with 1μM of KMU-470 for 24 h and stimulated with LPS (50 ng/mL) at the indicated times. (C) Cells were pre-treated with 0.5 and 1μM of KMU-470 for 30 min prior to LPS treatment. Total proteins were isolated after 6 h exposure to LPS (50 ng/mL). The protein expression level of MAPKs, p-IKKα/β, and p-NF-κB were assessed using Western blot analyses. (B,D) The relative optical densities of MAPKs, p-IKKα/β, and p-NF-κB bands were analyzed by the Image-J program. *** p < 0.001.
RAW 264.7 cells were pre-treated with KMU-470 (0.5–1 μM/mL) for 24 h and stimulated with LPS (50 ng/mL) for 6 h. After stimulation, total cells were harvested, washed with PBS buffer, and then the total protein was extracted with a RIPA buffer (0.1 mM sodium orthovanadate, 137 mM NaCl, 15 mM EGTA, 0.1% Triton X-100, 25 mM MOPS, 15 mM MgCl2, 100 μM phenylmethylsulfonyl fluoride, and 20 μM leupeptin, adjusted to pH 7.2). […] Immunoreactive proteins were detected using the ELC Western blot detection system kit (Millipore). Signal intensity was measured using the Chemi Image documentation system (Fusion Fx7, VILBER LOUTMAT). Protein expression levels were quantified using the Image J program.

Activity (% Control) BTK (h) (BTK (h)): 80 % Control | Activity (% Control) Bmx (h) (Bmx (h)): 47 % Control | Activity (% Control) Csrc (h) (Csrc (h)): 43 % Control | Activity (% Control) Fgr (h) (Fgr (h); KMU-470 1 μM): 42 % Control | Activity (% Control) Fgr (h) (Fgr (h); KMU-470 10 μM): 8 % Control | Activity (% Control) Fyn (h) (Fyn (h); KMU-470 1 μM): 97 % Control | Activity (% Control) Fyn (h) (Fyn (h); KMU-470 10 μM): 16 % Control | Activity (% Control) Hck (h) (Hck (h)): 37 % Control | Activity (% Control) Itk (h) (Itk (h); KMU-470 1 μM): 75 % Control | Activity (% Control) Itk (h) (Itk (h); KMU-470 10 μM): 21 % Control | Activity (% Control) JAK1 (h) (JAK1 (h); KMU-470 1 μM): 61 % Control | Activity (% Control) JAK1 (h) (JAK1 (h); KMU-470 10 μM): 20 % Control | Activity (% Control) JAK2 (h) (JAK2 (h); KMU-470 1 μM): 107 % Control | Activity (% Control) JAK2 (h) (JAK2 (h); KMU-470 10 μM): 23 % Control | Activity (% Control) JAK3 (h) (JAK3 (h); KMU-470 1 μM): 38 % Control | Activity (% Control) JAK3 (h) (JAK3 (h); KMU-470 10 μM): 15 % Control | Activity (% Control) Lck (h) (Lck (h); KMU-470 1 μM): 41 % Control | Activity (% Control) Lck (h) (Lck (h); KMU-470 10 μM): 14 % Control | Activity (% Control) Lyn (h) (Lyn (h); KMU-470 1 μM): 30 % Control | Activity (% Control) Lyn (h) (Lyn (h); KMU-470 10 μM): 10 % Control | Activity (% Control) MAPK1 (h) (MAPK1 (h); KMU-470 1 μM): 6 % Control | Activity (% Control) MAPK1 (h) (MAPK1 (h); KMU-470 10 μM): −18 % Control | Activity (% Control) Pyk2 (h) (Pyk2 (h)): 41 % Control | Activity (% Control) SAPK2a (h) (SAPK2a (h)): 77 % Control | Activity (% Control) Syk (h) (Syk (h); KMU-470 1 μM): 82 % Control | Activity (% Control) Syk (h) (Syk (h); KMU-470 10 μM): 21 % Control | Activity (% Control) TYK2 (h) (TYK2 (h); KMU-470 1 μM): 54 % Control | Activity (% Control) TYK2 (h) (TYK2 (h); KMU-470 10 μM): 14 % Control | Activity (% Control) Tec (h) activated (Tec (h) activated): 71 % Control | Activity (% Control) Txk (h) (Txk (h)): 50 % Control | Activity (% Control) Yes (h) (Yes (h); KMU-470 1 μM): 22 % Control | Activity (% Control) Yes (h) (Yes (h); KMU-470 10 μM): −3 % Control | Activity (% Control) ZAP-70 (h) (ZAP-70 (h)): 100 % Control
SMILES: CN(C)CCNc1cncc(-c2ccc3c(c2)/C(=C/c2cnc[nH]2)C(=O)N3)n1 [KMU-470, (Z)-3-((1H-Imidazol-5-yl)methylene)-5-(6-((2-(dimethylamino)ethyl)amino)pyrazin-2-yl)indolin-2-one]
LPS-induced phosphorylation of JNK (JNK): significantly inhibited
